Data as given in ChEMBL document CHEMBL3352612, “Design, synthesis, and biological activities of 1-aryl-1,4-diazepan-2-one derivatives as novel triple reuptake inhibitors” (Bioorg Med Chem Lett, 2014).
pIC50: −log10 of the molar value. Calls of active or inactive are those of the source. The calls are words filed in the database; no cut-off is given here.

Legend:
[1] = biological target: Sodium-dependent dopamine transporter (Homo sapiens, UniProt Q01959); assay: Inhibition of [3H]dopamine reuptake at human DAT expressed in CHO cells after 60 mins by scintillation counting; format: cell-based
Cytochrome P450 2D6 = Cytochrome P450 2D6 (Homo sapiens, UniProt P10635); assay: Inhibition of CYP2D6 (unknown origin); format: ADME
[2] = biological target: Sodium-dependent serotonin transporter (Homo sapiens, UniProt P31645); assay: Inhibition of [3H]serotonin reuptake at human SERT expressed in CHO cells after 20 mins by scintillation counting; format: cell-based
[3] = biological target: Sodium-dependent noradrenaline transporter (Homo sapiens, UniProt P23975); assay: Inhibition of [3H]norepinephrine reuptake at human NET expressed in CHO cells after 45 mins by scintillation counting; format: cell-based
[4] = biological target: Voltage-gated inwardly rectifying potassium channel KCNH2 (Homo sapiens, UniProt Q12809); assay: Inhibition of human ERG
Mus musculus [5] = assay: Increase in extracellular 5-HT level in ICR mouse prefrontal cortex at 3 mg/kg, po measured at 120 mins post dose relative to basal level by microdialysis; format: functional
Mus musculus [6] = assay: Antidepressant activity in ICR mouse assessed as immobility time at 3 mg/kg, po measured 60 mins post dose by tail-suspension test; format: functional, organism-based; parameters: dose 3 mg/kg
Mus musculus [7] = assay: Increase in extracellular norepinephrine level in ICR mouse prefrontal cortex at 3 mg/kg, po measured at 120 mins post dose relative to basal level by microdialysis; format: functional
Mus musculus [8] = assay: Increase in extracellular dopamine level in ICR mouse prefrontal cortex at 3 mg/kg, po measured at 120 mins post dose relative to basal level by microdialysis; format: functional
Mus musculus [9] = assay: Antidepressant activity in po dosed ICR mouse assessed as immobility time measured 60 mins post dose by tail-suspension test; format: functional, organism-based

Chain of Sodium-dependent serotonin transporter (P31645 whole entry): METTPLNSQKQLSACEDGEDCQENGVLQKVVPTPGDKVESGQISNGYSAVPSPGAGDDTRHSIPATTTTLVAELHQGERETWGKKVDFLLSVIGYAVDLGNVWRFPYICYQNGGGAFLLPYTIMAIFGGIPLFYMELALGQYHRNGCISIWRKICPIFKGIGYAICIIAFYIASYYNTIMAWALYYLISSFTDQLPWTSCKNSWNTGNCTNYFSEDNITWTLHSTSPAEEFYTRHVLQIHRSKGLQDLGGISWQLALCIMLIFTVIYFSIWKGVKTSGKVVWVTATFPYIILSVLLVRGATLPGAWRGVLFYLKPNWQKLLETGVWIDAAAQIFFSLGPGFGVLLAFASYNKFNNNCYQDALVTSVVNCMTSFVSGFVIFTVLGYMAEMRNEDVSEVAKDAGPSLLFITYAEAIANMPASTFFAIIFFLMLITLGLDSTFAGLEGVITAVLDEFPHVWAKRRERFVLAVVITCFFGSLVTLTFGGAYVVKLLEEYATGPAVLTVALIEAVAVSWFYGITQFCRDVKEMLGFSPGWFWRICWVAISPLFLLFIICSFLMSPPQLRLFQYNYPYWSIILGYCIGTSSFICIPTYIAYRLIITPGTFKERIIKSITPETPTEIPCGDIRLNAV
Chain of Cytochrome P450 2D6 (P10635 whole entry): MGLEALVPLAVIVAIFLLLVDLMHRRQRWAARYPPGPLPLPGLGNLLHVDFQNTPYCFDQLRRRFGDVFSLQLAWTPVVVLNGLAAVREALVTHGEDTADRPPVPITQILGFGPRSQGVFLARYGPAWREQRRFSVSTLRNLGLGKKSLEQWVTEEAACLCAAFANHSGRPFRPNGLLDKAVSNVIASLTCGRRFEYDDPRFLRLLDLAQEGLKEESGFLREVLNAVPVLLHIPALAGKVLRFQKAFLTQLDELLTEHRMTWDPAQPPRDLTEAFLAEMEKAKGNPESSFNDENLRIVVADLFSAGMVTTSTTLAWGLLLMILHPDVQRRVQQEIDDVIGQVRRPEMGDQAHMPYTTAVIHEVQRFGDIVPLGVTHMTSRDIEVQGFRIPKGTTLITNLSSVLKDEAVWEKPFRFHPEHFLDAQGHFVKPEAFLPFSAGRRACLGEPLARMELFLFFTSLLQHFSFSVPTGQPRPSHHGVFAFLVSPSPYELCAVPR
Chain of Sodium-dependent dopamine transporter (Q01959 whole entry): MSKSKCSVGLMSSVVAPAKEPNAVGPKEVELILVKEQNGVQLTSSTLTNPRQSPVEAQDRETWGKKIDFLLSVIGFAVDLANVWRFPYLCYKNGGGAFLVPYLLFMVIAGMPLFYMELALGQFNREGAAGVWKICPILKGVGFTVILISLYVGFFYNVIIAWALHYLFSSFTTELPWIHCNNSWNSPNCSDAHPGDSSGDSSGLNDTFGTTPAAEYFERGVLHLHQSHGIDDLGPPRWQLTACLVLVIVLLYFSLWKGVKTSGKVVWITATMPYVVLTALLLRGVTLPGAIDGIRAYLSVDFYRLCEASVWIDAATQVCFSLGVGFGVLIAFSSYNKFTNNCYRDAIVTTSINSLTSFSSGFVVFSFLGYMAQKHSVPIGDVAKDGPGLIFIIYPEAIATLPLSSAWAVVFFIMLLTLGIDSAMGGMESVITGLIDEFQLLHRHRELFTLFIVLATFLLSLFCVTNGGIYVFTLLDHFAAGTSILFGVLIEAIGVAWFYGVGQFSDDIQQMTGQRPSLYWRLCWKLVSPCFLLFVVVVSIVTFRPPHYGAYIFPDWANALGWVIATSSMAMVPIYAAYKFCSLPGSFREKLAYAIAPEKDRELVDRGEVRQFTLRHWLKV
Chain of Sodium-dependent noradrenaline transporter (P23975 whole entry): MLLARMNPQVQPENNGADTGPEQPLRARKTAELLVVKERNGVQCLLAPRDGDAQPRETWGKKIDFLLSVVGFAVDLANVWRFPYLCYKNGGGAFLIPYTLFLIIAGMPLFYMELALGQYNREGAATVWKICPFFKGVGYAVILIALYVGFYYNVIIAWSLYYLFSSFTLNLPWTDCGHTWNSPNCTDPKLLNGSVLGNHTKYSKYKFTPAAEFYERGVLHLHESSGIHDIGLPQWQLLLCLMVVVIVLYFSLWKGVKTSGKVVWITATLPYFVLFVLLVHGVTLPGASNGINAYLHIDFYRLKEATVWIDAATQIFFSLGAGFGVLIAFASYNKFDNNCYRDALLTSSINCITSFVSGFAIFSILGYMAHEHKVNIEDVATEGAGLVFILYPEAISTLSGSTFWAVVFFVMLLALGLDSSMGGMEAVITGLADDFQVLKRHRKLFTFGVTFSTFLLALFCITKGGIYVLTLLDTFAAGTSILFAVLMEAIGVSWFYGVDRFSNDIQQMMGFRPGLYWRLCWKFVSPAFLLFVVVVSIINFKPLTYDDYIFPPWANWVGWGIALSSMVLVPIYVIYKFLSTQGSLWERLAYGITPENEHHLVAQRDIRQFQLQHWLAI
Chain of Voltage-gated inwardly rectifying potassium channel KCNH2 (Q12809 whole entry): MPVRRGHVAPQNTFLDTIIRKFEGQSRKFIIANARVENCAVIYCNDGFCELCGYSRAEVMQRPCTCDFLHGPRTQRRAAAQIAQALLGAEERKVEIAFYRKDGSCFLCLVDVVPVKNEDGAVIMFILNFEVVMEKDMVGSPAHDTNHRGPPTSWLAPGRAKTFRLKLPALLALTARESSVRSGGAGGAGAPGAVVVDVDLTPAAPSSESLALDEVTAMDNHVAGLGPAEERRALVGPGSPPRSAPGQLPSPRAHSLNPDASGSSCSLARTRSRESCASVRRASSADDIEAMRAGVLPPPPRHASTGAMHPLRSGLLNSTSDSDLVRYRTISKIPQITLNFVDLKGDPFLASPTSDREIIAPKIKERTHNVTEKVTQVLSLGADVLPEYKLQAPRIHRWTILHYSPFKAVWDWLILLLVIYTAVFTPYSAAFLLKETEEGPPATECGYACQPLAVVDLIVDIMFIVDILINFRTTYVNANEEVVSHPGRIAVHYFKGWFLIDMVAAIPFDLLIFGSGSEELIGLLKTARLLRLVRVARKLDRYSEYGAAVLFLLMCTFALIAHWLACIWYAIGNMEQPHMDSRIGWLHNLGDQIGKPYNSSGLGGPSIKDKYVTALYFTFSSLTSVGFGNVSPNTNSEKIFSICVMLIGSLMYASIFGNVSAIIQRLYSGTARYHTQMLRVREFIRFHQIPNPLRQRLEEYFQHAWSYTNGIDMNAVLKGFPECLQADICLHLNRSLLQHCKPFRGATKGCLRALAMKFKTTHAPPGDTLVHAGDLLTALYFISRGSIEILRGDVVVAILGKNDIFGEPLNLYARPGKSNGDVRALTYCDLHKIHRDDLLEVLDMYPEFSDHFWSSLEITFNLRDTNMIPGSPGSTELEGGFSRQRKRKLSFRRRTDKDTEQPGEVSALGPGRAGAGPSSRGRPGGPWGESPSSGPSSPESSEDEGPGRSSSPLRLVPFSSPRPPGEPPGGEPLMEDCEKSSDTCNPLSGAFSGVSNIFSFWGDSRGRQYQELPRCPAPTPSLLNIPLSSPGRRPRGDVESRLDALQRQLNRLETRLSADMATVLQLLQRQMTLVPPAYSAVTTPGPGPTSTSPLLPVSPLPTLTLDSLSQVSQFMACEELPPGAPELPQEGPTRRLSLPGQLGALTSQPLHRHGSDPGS

| pIC50 [1] | inhibition (INH) (Cytochrome P450 2D6) | pIC50 [2] | pIC50 [3] | Structure (SMILES) | inhibition (INH) [4] | Activity (Mus musculus [5]) | Activity (Mus musculus [6]) | Activity (Mus musculus [7]) | Activity (Mus musculus [8]) | Activity (Mus musculus [9]) |
| --- | --- | --- | --- | --- | --- | --- | --- | --- | --- | --- |
| < 5.00 | Not Active | 5.26 | 5.49 | CN1CCCN(c2ccc(Cl)c(Cl)c2)C(=O)C1.Cl | Not Active |  |  |  |  |  |
| < 5.00 | Not Active | 5.37 | 5.77 | CC1CCN(c2ccc(Cl)c(Cl)c2)C(=O)CN1.Cl (racemic) | Not Active |  |  |  |  |  |
| 6.72 | Not Active | 6.24 | 8.11 | CCC1NCCCN(c2ccc(Cl)c(Cl)c2)C1=O.Cl (racemic) | Not Active |  |  |  |  |  |
| 6.47 | Not Active | 6.70 | 7.85 | CC1NCCCN(c2ccc3ccccc3c2)C1=O.Cl (racemic) | Not Active |  |  |  |  |  |
| 5.35 |  | 5.72 | 6.18 | CC1CCNCC(=O)N1c1ccc(Cl)c(Cl)c1 (racemic) |  |  |  |  |  |  |
| 6.80 | Not Active | 7.08 | 8.42 | C[C@@H]1NCCCN(c2ccc3ccccc3c2)C1=O.Cl | Not Active | 210% | Active | 750% | 640% | Dose-dependent effect |
| < 5.00 |  | 6.59 | 6.24 | C[C@H]1NCCCN(c2ccc3ccccc3c2)C1=O |  |  |  |  |  |  |
| 6.89 | Not Active | 7.06 | 8.04 | CCC1NCCCN(c2ccc3ccccc3c2)C1=O.Cl (racemic) | Not Active |  |  |  |  |  |
| 6.33 | Not Active | 6.28 | 8.10 | CC1NCCCN(c2ccc(Cl)c(Cl)c2)C1=O.Cl (racemic) | Not Active |  |  |  |  |  |

| Structure (SMILES) | pIC50 [1] | inhibition (INH) (Cytochrome P450 2D6) | pIC50 [2] | pIC50 [3] | inhibition (INH) [4] | Activity (Mus musculus [5]) | Activity (Mus musculus [6]) | Activity (Mus musculus [7]) | Activity (Mus musculus [8]) | Activity (Mus musculus [9]) |
| --- | --- | --- | --- | --- | --- | --- | --- | --- | --- | --- |
| Cl.O=C1CNCCCN1c1ccc(Cl)c(Cl)c1 | 6.38 | Not Active | 7.30 | 7.89 | Not Active |  |  |  |  |  |
| O=C1CNCC2(CC2)CN1c1ccc(Cl)c(Cl)c1 | 6.92 |  | 5.66 | 7.09 |  |  |  |  |  |  |
| CC1CNCC(=O)N(c2ccc(Cl)c(Cl)c2)C1 (racemic) | 5.40 |  | 5.66 | 6.59 |  |  |  |  |  |  |
| O=C1CNCC(F)(F)CN1c1ccc(Cl)c(Cl)c1 | 5.09 |  | 5.89 | 5.70 |  |  |  |  |  |  |
